{"source": "paper PMC12413448", "about": "“Atomic resolution structures of the methane-activating enzyme in anaerobic methanotrophy reveal extensive post-translational modifications” (Nature Communications, 2025)", "key": {"[1]": {"target": "T1, MCR from ANME-2d^V (Methyl-Coenzyme M Reductase) (Candidatus Methanoperedens sp., UniProt Z9LNO2W1Q3+Z9MSE7NHP1+Z9ZZ61DSW2)", "T1 sequence (Z9MSE7NHP1 1-566)": "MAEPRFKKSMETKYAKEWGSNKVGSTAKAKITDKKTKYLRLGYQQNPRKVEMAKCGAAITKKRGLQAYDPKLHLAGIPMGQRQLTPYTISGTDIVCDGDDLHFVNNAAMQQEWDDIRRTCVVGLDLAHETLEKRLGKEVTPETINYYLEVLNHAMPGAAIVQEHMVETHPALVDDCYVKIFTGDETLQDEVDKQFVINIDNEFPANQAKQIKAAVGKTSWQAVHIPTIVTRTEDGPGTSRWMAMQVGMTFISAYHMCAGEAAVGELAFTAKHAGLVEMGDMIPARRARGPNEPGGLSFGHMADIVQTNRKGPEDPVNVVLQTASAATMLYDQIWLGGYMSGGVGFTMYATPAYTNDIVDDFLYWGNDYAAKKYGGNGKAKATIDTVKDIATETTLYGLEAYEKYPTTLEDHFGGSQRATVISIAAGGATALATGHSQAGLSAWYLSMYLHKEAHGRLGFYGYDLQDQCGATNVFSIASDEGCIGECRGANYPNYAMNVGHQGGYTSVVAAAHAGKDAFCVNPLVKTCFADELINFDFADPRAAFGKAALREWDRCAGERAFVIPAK", "T1 sequence (Z9ZZ61DSW2 1-434)": "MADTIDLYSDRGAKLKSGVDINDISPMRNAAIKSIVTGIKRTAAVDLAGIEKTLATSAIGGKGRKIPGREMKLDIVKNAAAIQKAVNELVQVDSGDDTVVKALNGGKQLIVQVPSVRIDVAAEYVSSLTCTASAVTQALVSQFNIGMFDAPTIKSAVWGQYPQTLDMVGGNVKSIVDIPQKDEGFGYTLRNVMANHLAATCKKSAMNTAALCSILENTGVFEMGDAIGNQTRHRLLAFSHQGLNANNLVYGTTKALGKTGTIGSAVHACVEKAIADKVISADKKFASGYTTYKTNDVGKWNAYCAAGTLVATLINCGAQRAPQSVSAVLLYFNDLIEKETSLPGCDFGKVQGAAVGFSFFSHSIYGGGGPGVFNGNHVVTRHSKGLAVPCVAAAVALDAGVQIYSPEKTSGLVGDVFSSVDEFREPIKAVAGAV", "T1 sequence (Z9LNO2W1Q3 1-249)": "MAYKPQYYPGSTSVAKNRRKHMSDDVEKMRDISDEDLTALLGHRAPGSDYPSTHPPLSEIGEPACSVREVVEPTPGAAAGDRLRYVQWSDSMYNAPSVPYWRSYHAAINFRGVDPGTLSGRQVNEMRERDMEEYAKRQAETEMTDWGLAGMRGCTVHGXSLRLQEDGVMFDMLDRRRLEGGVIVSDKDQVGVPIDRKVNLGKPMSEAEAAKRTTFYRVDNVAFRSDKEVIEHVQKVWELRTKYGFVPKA", "experiment": "X-ray crystal structure, […] Å", "conditions": "as isolated; mixture of ligands modelled in active site"}, "[2]": {"target": "T2, MCR from ANME-2d^O (Methyl-Coenzyme M Reductase) (Candidatus Methanoperedens sp. BLZ2, UniProt Z9I9A7LEW2+Z9NDC8PKK5+Z9T835AYK6)", "T2 construct": "native purification from bioreactor enrichment; (alpha beta gamma)2 dimer of heterotrimers; seven native PTMs including 3(S)-methylhistidine 159 on gamma; full length", "T2 sequence (Z9T835AYK6 1-562)": "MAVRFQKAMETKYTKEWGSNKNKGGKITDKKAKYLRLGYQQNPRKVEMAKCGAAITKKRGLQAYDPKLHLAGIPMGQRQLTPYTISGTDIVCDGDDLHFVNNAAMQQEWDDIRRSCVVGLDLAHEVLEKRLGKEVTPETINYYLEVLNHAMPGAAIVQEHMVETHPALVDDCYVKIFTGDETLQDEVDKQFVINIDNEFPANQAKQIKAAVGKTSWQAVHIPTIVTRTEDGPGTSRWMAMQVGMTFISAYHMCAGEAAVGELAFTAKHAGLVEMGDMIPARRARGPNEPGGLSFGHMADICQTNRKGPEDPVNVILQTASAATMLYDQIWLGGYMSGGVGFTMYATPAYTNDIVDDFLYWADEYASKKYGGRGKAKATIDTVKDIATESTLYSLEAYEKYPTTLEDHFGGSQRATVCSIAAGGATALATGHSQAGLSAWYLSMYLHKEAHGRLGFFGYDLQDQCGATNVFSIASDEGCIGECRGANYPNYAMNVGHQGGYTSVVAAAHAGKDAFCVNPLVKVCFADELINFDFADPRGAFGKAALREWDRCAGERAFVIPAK", "T2 sequence (Z9NDC8PKK5 1-434)": "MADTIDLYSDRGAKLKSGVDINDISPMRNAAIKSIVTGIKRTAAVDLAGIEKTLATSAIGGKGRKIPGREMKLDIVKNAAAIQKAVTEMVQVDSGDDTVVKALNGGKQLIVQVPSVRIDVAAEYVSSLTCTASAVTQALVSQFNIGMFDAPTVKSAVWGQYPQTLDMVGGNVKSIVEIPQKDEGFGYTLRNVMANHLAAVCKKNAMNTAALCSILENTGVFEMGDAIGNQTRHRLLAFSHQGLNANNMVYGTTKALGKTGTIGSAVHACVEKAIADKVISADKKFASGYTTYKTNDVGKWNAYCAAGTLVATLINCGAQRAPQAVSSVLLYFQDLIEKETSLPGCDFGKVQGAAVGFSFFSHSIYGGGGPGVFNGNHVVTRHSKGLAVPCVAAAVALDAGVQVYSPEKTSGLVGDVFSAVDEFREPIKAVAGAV", "T2 sequence (Z9I9A7LEW2 1-249)": "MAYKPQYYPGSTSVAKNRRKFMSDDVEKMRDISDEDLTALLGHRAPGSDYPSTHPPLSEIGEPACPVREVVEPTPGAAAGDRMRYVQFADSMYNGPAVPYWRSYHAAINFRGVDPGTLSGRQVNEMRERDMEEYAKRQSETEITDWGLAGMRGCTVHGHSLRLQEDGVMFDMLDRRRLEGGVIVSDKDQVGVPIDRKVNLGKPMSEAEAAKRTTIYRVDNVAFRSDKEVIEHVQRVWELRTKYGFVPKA", "experiment": "X-ray crystal structure, […] Å", "type": "binding", "conditions": "as isolated, trapped in active site; reduced thiol"}}}
{"compound": "C[C@@H](OP(=O)(O)O)[C@H](NC(=O)CCCCCCSSCCS(=O)(=O)O)C(=O)O", "note": "[heterodisulfide]", "values": [{"measurement": "X-ray crystal structure, 0.98 Å", "setting": "[1]", "result": "optimal when the model included CoM-SH, CoB-SH, the heterodisulfide, and methyl-CoM"}]}
{"compound": "C[C@@H](OP(=O)(O)O)[C@H](NC(=O)CCCCCCS)C(=O)O", "note": "[CoB-SH]", "values": [{"measurement": "X-ray crystal structure, 0.98 Å", "setting": "[2]", "result": "MCRs from ANME-2c and ANME-2d^O contain reduced coenzymes trapped in the active site"}]}
{"compound": "O=S(=O)(O)CCS", "note": "[CoM-SH]", "values": [{"measurement": "X-ray crystal structure, 0.98 Å", "setting": "[2]", "result": "MCRs from ANME-2c and ANME-2d^O contain reduced coenzymes trapped in the active site"}, {"measurement": "X-ray crystal structure, 0.98 Å", "setting": "[1]", "result": "optimal when the model included CoM-SH, CoB-SH, the heterodisulfide, and methyl-CoM"}]}
